From patent publication US7838562B2, “Methods of inhibiting vascular permeability and apoptosis” (University of Connecticut, priority 2004, dated 2010)

Key:
[1] = system: VE-cadherin; assay: VE-cadherin localization by immunofluorescence in HUVEC; assay type: cell-based, human; details: 30 minutes; 10 nM (S1P 100 nM)
Description: The effects of FTY720-P and (R)-AFD on the localization of VE-cadherin were studied using immunofluorescence analysis. In this study, 2×10^5 cells were plated in 35 millimeter glass bottom petri dishes. Three days later, the cells were washed and serum starved for 3 hours before treatments. Then, the cells were washed with ice-cold PBS, fixed, and immunofluorescence analysis with VE-cadherin antibody was conducted (1 μg/ml Santa Cruz). The primary antibody staining was visualized with Rhodamine-conjugated goat anti-mouse (1:1000, Cappel) IgG. Confocal microscopy was conducted on a Zeiss LSM 510 laser-scanning confocal microscope. Rhodamine fluorescence was excited using a 543 nm Helium/Neon laser and emitted fluorescence was detected with a […] long-pass filter.

[2] = molecular target: T1, SK2 (Mus musculus, UniProt Q9JIA7); details: SK2-[…]T; 100 μM FTY720 or (R)-AAL, 20 μM sphingosine
T1 sequence (Q9JIA7 1-617): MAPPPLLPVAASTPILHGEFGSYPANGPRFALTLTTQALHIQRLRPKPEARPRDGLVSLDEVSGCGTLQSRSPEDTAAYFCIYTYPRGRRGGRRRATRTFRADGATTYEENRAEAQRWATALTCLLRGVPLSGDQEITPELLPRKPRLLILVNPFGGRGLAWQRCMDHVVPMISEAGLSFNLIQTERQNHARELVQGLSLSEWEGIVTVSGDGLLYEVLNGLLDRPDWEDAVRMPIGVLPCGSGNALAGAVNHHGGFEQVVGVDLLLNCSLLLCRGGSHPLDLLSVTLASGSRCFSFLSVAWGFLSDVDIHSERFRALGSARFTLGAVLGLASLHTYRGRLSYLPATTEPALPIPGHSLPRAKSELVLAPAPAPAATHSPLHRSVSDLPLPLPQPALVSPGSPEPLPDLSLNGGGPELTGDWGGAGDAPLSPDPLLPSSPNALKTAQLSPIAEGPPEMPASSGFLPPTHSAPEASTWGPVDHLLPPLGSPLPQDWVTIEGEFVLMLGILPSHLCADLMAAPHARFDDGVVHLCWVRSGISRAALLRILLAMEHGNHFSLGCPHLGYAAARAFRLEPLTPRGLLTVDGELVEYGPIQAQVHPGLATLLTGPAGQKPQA

[3] = system: VEGF-induced vascular permeability; assay: mouse ear microvascular permeability assay (VEGF-induced); assay type: in vivo, FVB/N mice; details: mice, single oral administration (gavage, 50 μg) 5 hours prior
Description: The role of plasma borne FTY720-P or (R)-AFD in the regulation of vascular permeability was tested in vivo. In order to test this possibility, an in vivo vascular permeability model was used in FTY720, (R)-AFD or (S)-AAL-pretreated mice. […] Five hours post-gavage, animals were anesthetized with 2% Avertin™ (0.5 cc/20 g) and infused through the tail vein with 100 μl FITC-dextran (5 mg/ml, 165 kDa). Animals were placed on a warming table under a fluorescent dissecting microscope (Zeiss STV11, Zeiss, Inc.) and the central vessels in the ear were imaged. Control saline or mouse vascular endothelial growth factor (mVEGF, 10 ng/ml) was injected subdermally into the middle ear using a 30 gauge needle (30 μl). Ear vasculature was then imaged with fixed exposure times in a stationary position from 5 minutes to 120 minutes post-injection. Fluorescence images were then quantified using pixel-based threshold in ImageProPlus (Media Cybernetics, Inc.) and quantified.

[4] = system: phospho-ERK-1/2; assay: Western blot of ERK-1/2 phosphorylation in HUVEC; assay type: cell-based, human; details: 5 minute stimulation
Excerpt: (§1) Endothelial cell morphogenesis, a phenomenon that requires endothelial cell migration, survival and adherens junction assembly, is mediated by the ligand-dependent activation of S1P1 and S1P3 receptors. […] The effects of FTY720-P and analogs on Akt and ERK phosphorylation in HUVEC were studied in a Western blot analysis. Confluent cultures of HUVEC cells were serum starved for two hours in 0.1% ffa-BSA M199 before treatments. Then, they were washed with ice-cold phosphate buffered saline (PBS) containing 1 mM sodium fluoride and 1 mM sodium orthovanadate and homogenized in radioimmunoprecipitation assay buffer (0.1% sodium dodecyl sulfate (SDS), 0.5% sodium deoxycholate, 1% NP-40, 1 mM sodium orthovanadate, 50 mM β-glycerophosphate and 1× protease inhibitor cocktail). Samples were centrifuged 10,000×g for 10 minutes, and protein concentrations of supernatants were determined by Bradford assay (BioRad Protein Dye Reagent). Equal amounts of protein were separated on a 10% polyacrylamide gel and blotted to a nitrocellulose membrane. Immunoblot analysis was performed using Phospho-Akt, Akt, phospho-ERK1/2 or ERK-1/2 antibodies.

[5] = system: HUVEC; assay: HUVEC migration (96 well chemotaxis microchamber)
Description: Briefly, polycarbonate filters with a pore size of 8 micrometers (μm) were coated with 5 micrograms per milliliter (μg/ml) fibronectin. […] Approximately 5×10^4 cells suspended in M199 with 0.1% bovine serum albumin were placed in the upper compartment. The cells were allowed to migrate for 4 hours at 37° C. in a humidified chamber with 5% CO2. After the incubation period, the filter was removed, and cells were stained in 0.1% crystal violet and eluted with 10% acetic acid in 96-well plates.
After incubation, conditioned medium was removed, centrifuged at 1,000×g for 10 minutes, and used in the migration assay.

[6] = system: phospho-Akt; assay: Western blot of Akt phosphorylation in HUVEC; assay type: cell-based, human; details: 5 minute stimulation
Excerpt: as §1

[7] = system: kinase activity present in HUVEC (sphingosine kinase); assay: in vitro kinase assay with total cell extract from HUVEC; assay type: biochemical, human; details: HUVEC total cell extract; 100 μM FTY720 or AAL, 20 μM sphingosine; 30 minutes
Description: To confirm that FTY720 and (R)-AAL are phosphorylated by endothelial cells, an in vitro kinase assay was performed with both total cell extract and conditioned medium from HUVEC. […] Cells were scraped at 4° C. with 400 μl of 25 mM HEPES pH 7.5, […], 1× protease inhibitor mixture, and disrupted by brief sonication. Cellular homogenates were centrifuged for 10 minutes, 4° C. at 20,000×g. In the kinase assay, 300 μl of conditioned medium (derived from 5×10^5 cells for 3 hours of incubation) or 10 μg of total cell extract from HUVEC were used as a source of kinase activity. […] Lipids were extracted and samples were resuspended in 50 μl of chloroform. Lipids were resolved by TLC on Silica Gel G60 using 1-butanol/acetic acid/water (60/20/20 volume/volume) buffer and quantified with a PhosphorImager (Molecular Dynamics).

[8] = molecular target: SK1 (Mus musculus, UniProt Q8CI15); details: SK1-293T; 20 μM sphingosine
Chain of SK1 (Q8CI15 1-388 isoform Q8CI15-2): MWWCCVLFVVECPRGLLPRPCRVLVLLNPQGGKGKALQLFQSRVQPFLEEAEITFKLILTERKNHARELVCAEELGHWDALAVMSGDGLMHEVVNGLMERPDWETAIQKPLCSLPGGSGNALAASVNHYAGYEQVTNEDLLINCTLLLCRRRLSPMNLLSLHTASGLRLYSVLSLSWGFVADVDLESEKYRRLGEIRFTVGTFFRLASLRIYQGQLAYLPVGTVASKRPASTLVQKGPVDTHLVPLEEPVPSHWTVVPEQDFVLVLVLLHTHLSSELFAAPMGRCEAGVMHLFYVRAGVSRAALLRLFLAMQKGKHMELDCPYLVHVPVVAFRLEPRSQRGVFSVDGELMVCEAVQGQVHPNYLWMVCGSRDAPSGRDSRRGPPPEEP

| SMILES | VE-cadherin localization at cell-cell contact regions / translocation to adherens junctions [1] | specific activity (phosphorylation of the substrate) [2] | inhibition of vascular permeability induced by VEGF [3] | ERK-1/2 phosphorylation (in words) [4] | migration induced by conditioned medium ([5]; compound incubated with HUVEC for 3 hours, conditioned medium used as chemoattractant) | induction of endothelial cell migration ([5]; compound used directly as chemoattractant, 4 hours) | Akt phosphorylation (in words) [6] | specific activity (phosphorylation of the substrate) [7] | specific activity (phosphorylation of the substrate) [8] |
| --- | --- | --- | --- | --- | --- | --- | --- | --- | --- |
| CCCCCCCCc1ccc(CCC(N)(CO)CO)cc1 [FTY720, 2-amino-2-[2-(4-octaphenyl)ethyl]propane-1,3 diol, reference compound] | did not induce VE-cadherin translocation to the adherens junctions | 41.6 pmol/min/mg | profoundly suppressed vascular permeability induced by VEGF | did not induce phospho-Akt or phospho-ERK-1/2 levels | activated into potent chemoattractants for endothelial cells | Neither FTY720 nor its structural analog (R)-AAL induced endothelial cell migration | did not induce phospho-Akt or phospho-ERK-1/2 levels | 3.85 ± 0.75 pmol/mg/min | – |
| CCCCCCCCCCCCC/C=C/[C@@H](O)[C@@H](N)CO [sphingosine, Sphingosine] | – | 319.9 pmol/min/mg | – | – | – | – | – | 75.7 ± 6 pmol/mg/min | 48.1 pmol/mg/min |
